“And” between values parts separate entries of the source, which are not always exact repeats. Equal entries are not always repeated. Where two headings read alike, the source gives them in different places.
How the values were obtained:
mouse GPR40 = target: T1, mouse GPR40 (Mus musculus, UniProt Q76JU9); assay: Mouse GPR40 IP1 accumulation assay; format: cell-based
T1 construct: expressed in transfected cells; host or cells: CHO-K1 (methods)
Outline: (§1)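 IP1 accumulation is measured by HTRF after 60 min compound stimulation at room temperature in LiCl (50 mM)-containing buffer. Compounds run in ½-log dilutions from a final top concentration of 10 μM or 1 μM. Cells are hGPR40/HEK293, mGPR40/CHO-K1 and rGPR40/CHO-K1. Activity is scaled between DMSO and a partial allosteric agonist and fitted to a 4-parameter curve for EC50 and maximum.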

rat GPR40 = target: T2, rat GPR40 (Rattus norvegicus, UniProt Q8K3T4); assay: Rat GPR40 IP1 accumulation assay; format: cell-based
T2 construct: expressed in transfected cells; host or cells: CHO-K1 (methods)
T2 sequence (Q8K3T4 whole entry): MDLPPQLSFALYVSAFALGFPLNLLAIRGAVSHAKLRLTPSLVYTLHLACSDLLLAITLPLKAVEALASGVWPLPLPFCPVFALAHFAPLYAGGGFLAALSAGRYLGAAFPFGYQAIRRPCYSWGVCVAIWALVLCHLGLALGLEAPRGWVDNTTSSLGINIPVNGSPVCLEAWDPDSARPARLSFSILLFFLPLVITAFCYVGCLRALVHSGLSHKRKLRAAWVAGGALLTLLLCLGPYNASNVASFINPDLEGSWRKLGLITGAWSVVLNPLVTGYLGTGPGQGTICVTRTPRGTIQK
Outline: as §1

human GPR40 [1] = target: T3, human GPR40 (Homo sapiens, UniProt O14842); assay: Human GPR40 IP1 accumulation assay; format: cell-based; set-up: expressed in transfected cells
T3 sequence (O14842 whole entry): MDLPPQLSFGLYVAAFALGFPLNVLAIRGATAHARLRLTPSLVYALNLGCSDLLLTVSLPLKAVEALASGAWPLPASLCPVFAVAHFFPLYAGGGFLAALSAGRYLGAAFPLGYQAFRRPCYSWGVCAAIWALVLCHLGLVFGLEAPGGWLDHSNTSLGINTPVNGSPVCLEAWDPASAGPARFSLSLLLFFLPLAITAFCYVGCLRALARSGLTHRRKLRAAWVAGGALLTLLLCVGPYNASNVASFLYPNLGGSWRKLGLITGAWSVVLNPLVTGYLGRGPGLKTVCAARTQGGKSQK
Outline: as §1

human GPR40 [2] = target: T3, human GPR40; assay: GPR40 binding assay, partial agonist tracer [3H]L358; set-up: expressed in transfected cells; host or cells: CHO / CHO-K1 cells, membrane preparation;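 for %Bound: 100% is tracer binding with DMSO alone and 0% is full displacement by a standard compound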
Outline: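 SPA binding on membranes from CHO cells stably expressing human GPR40 (5 μg/well, with WGA beads) in Tris/MgCl2/EDTA buffer at room temperature. Each compound was tested against tracer [3H]L358 (partial-agonist site) or [3H]25 (AgoPAM site), since it may displace or augment tracer binding. Maximal % bound and IC50 were derived from scintillation counts.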

[3] = maximal % activity vs in-house partial agonist control
[4] = radioligand L-001533358, dose 0.318285 nM
[5] = radioligand L-001533358, dose 1.00578 nM
[6] = radioligand L-001533358, dose 3.17827 nM
[7] = radioligand L-001533358, dose 10.0433 nM
[8] = radioligand L-001533358, dose 31.7369 nM
[9] = radioligand L-001533358, dose 100.289 nM
[10] = radioligand L-001533358, dose 316.912 nM
[11] = radioligand L-001533358, dose 1001.44 nM
[12] = radioligand L-001533358, dose 3164.56 nM
[13] = radioligand L-001533358, dose 10000 nM

T1 sequence (Q76JU9 whole entry): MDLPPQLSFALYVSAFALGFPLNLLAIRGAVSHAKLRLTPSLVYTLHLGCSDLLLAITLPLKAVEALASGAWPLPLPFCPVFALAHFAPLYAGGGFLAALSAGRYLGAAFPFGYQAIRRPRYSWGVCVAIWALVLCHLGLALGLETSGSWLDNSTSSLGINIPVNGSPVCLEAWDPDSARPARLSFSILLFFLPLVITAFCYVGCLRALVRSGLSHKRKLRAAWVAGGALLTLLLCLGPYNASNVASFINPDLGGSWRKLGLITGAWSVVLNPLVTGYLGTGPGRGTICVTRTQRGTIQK

Cc1cc(OCCCS(C)(=O)=O)cc(C)c1-c1cccc(COc2ccc3c(c2)OC[C@H]3CC(=O)O)c1 [TAK-875, reference compound]
Mouse GPR40 Receptor Activation (%) (mouse GPR40; dose 1.20E-10 M): -5.6% | Mouse GPR40 Receptor Activation (%) (mouse GPR40; dose 1.99E-06 M): 140% | Mouse GPR40 Receptor Activation (%) (mouse GPR40; dose 1.99E-07 M): 129% | Mouse GPR40 Receptor Activation (%) (mouse GPR40; dose 1.99E-08 M): 125% | Mouse GPR40 Receptor Activation (%) (mouse GPR40; dose 2.00E-09 M): 44% | Mouse GPR40 Receptor Activation (%) (mouse GPR40; dose 5.98E-07 M): 147% | Mouse GPR40 Receptor Activation (%) (mouse GPR40; dose 5.98E-08 M): 122% | Mouse GPR40 Receptor Activation (%) (mouse GPR40; dose 5.99E-09 M): 87% | Mouse GPR40 Receptor Activation (%) (mouse GPR40; dose 5.99E-10 M): 23% | Mouse GPR40 Functional Assay %Act (mouse GPR40; individual replicates (n)): 131% and 140% and 174% and 156% and 154% and 110% and 134% and 185% and 133% and 107% and 152% | EC50 (mouse GPR40; individual replicates (n), read-out: Mouse GPR40 Functional Assay EC50): 2.6 nM and 3.1 nM and 3.4 nM and 4.3 nM and 4.6 nM and 5.4 nM and 5.5 nM and 6.5 nM and 6.9 nM and 8.2 nM and 1.6 nM and 1.9 nM | Efficacy (% Activation), Mouse (mouse GPR40; [3]): (145%) | EC50 (mouse GPR40; mean ± SD, n = 2–20, IP accumulation, read-out: Potency [EC50, nM] ± SD, Mouse): 4.4 ± 2.1 nM | Rat GPR40 Receptor Activation (%) (rat GPR40; dose 1.20E-10 M): -1.85% | Rat GPR40 Receptor Activation (%) (rat GPR40; dose 1.99E-06 M): 186% | Rat GPR40 Receptor Activation (%) (rat GPR40; dose 1.99E-07 M): 172% | Rat GPR40 Receptor Activation (%) (rat GPR40; dose 1.99E-08 M): 148% | Rat GPR40 Receptor Activation (%) (rat GPR40; dose 2.00E-09 M): 65% | Rat GPR40 Receptor Activation (%) (rat GPR40; dose 5.98E-07 M): 173% | Rat GPR40 Receptor Activation (%) (rat GPR40; dose 5.98E-08 M): 144% | Rat GPR40 Receptor Activation (%) (rat GPR40; dose 5.99E-09 M): 117% | Rat GPR40 Receptor Activation (%) (rat GPR40; dose 5.99E-10 M): 23% | Rat GPR40 Functional Assay %Act (rat GPR40; individual replicates (n)): 129% and 176% and 138% and 164% and 159% and 199% and 148% and 141% and 177% and 150% | EC50 (rat GPR40; individual replicates (n), read-out: Rat GPR40 Functional Assay EC50): 5.5 nM and 6.1 nM and 8.7 nM and 9.9 nM and 11.6 nM and 12.4 nM and 13.4 nM and 3.2 nM and 2.7 nM and 4.1 nM | Efficacy (% Activation), Rat (rat GPR40; [3]): (158%) | EC50 (rat GPR40; mean ± SD, n = 2–20, IP accumulation, read-out: Potency [EC50, nM] ± SD, Rat): 7.8 ± 4 nM | Human GPR40 Receptor Activation (%) (human GPR40 [1]; dose 2.00E-06 M): 100% | Human GPR40 Receptor Activation (%) (human GPR40 [1]; dose 2.00E-07 M): 90% | Human GPR40 Receptor Activation (%) (human GPR40 [1]; dose 2.00E-08 M): 81% | Human GPR40 Receptor Activation (%) (human GPR40 [1]; dose 2.00E-09 M): 31% | Human GPR40 Receptor Activation (%) (human GPR40 [1]; dose 2.00E-10 M): -1.34% | Human GPR40 Receptor Activation (%) (human GPR40 [1]; dose 6.00E-07 M): 95% | Human GPR40 Receptor Activation (%) (human GPR40 [1]; dose 6.00E-08 M): 98% | Human GPR40 Receptor Activation (%) (human GPR40 [1]; dose 6.00E-09 M): 48% | Human GPR40 Receptor Activation (%) (human GPR40 [1]; dose 6.00E-10 M): 16% | Human GPR40 Receptor Activation (%) (human GPR40 [1]; dose 6.00E-11 M): 3.69% | HUMAN GPR40 Functional Assay %Act (human GPR40 [1]; individual replicates (n)): 122% and 82% and 93% and 96% and 99% and 104% and 130% and 79% | Efficacy (% Activation), Human (human GPR40 [1]; [3]): (102%) | HUMAN GPR40 Binding Data %Act (human GPR40 [2]; TAK875 sheet, individual replicates (n), tracer not given): 92% and 91% and 95% and 87% and 103% and 89% and 72% and 84% and 93% and 94% | Binding Results, % in parentheses, [^3H]L-358 (human GPR40 [2]; WT human GPR40, maximal % (not defined)): (91%) | binding of [^3H]L358 (human GPR40 [2]; human GPR40 membranes, competition binding): displace | % Bound Normalized to 100 (human GPR40 [2]; [4]): 100.25% | %Bound (human GPR40 [2]; [4]): 75.22% | inhibition at 0.000318285 µM (human GPR40 [2]; [4]): 15.4% | % Bound Normalized to 100 (human GPR40 [2]; [5]): 73.95% | %Bound (human GPR40 [2]; [5]): 48.92% | inhibition at 0.00100578 µM (human GPR40 [2]; [5]): 31.9% | % Bound Normalized to 100 (human GPR40 [2]; [6]): 83.61% | %Bound (human GPR40 [2]; [6]): 58.58% | inhibition at 0.00317827 µM (human GPR40 [2]; [6]): 49.3% | % Bound Normalized to 100 (human GPR40 [2]; [7]): 73.41% | %Bound (human GPR40 [2]; [7]): 48.38% | inhibition at 0.0100433 µM (human GPR40 [2]; [7]): 73.5% | % Bound Normalized to 100 (human GPR40 [2]; [8]): 43.62% | %Bound (human GPR40 [2]; [8]): 18.59% | inhibition at 0.0317369 µM (human GPR40 [2]; [8]): 84.4% | % Bound Normalized to 100 (human GPR40 [2]; [9]): 17.05% | %Bound (human GPR40 [2]; [9]): -7.97% | inhibition at 0.100289 µM (human GPR40 [2]; [9]): 102% | % Bound Normalized to 100 (human GPR40 [2]; [10]): 19.20% | %Bound (human GPR40 [2]; [10]): -5.83% | inhibition at 0.316912 µM (human GPR40 [2]; [10]): 111% | % Bound Normalized to 100 (human GPR40 [2]; [11]): 13.56% | %Bound (human GPR40 [2]; [11]): -11.46% | inhibition at 1.00144 µM (human GPR40 [2]; [11]): 105% | % Bound Normalized to 100 (human GPR40 [2]; [12]): 20.27% | %Bound (human GPR40 [2]; [12]): -4.75% | inhibition at 3.16456 µM (human GPR40 [2]; [12]): 111% | % Bound Normalized to 100 (human GPR40 [2]; [13]): 28.06% | %Bound (human GPR40 [2]; [13]): 3.03% | inhibition at 10 µM (human GPR40 [2]; [13]): 109%

— publication PMC5650142, “GPR40 partial agonists and AgoPAMs: Differentiating effects on glucose and hormonal secretions in the rodent” (PLoS ONE, 2017)
